Data taken from ChEMBL document CHEMBL1201862, “PubChem BioAssay data set” (2004).
Activity calls are given as the source filed them.

Key:
[1] = target: Intestinal-type alkaline phosphatase (Mus musculus, UniProt P24822); experiment: PubChem AID 488875; format: functional
[2] = target: T1, Intestinal-type alkaline phosphatase (Homo sapiens, UniProt P09923); experiment: activation of human intestinal alkaline phosphatase – biochemical, luminescent, uHTS hits, set 2, dose response (AID 488817); format: functional;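 note: potency of activators that raise enzyme activity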
T1 sequence (P09923 whole entry): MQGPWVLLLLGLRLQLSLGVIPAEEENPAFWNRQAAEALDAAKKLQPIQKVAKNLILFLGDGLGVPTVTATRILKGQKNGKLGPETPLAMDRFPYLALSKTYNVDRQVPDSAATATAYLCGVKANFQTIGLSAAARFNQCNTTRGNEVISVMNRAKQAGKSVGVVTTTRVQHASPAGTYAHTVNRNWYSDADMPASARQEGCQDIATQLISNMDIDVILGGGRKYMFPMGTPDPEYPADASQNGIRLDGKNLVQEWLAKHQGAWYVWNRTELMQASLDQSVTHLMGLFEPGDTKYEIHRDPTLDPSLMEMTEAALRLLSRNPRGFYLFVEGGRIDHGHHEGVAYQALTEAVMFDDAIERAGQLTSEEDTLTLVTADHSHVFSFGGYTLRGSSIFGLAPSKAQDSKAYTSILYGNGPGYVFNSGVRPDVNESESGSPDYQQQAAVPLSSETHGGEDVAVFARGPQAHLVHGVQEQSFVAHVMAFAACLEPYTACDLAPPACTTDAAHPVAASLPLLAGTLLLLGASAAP

[3] = target: T2, Alkaline phosphatase, tissue-nonspecific isozyme (Homo sapiens, UniProt P05186); experiment: activation of tissue-nonspecific alkaline phosphatase – biochemical, TNAP isozyme, human IAP uHTS hits, selectivity assay for human IAP activator project, dose response (AID 488886); format: functional;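 note: potency of compounds raising TNAP activity as a selectivity check on IAP activators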
T2 sequence (P05186 whole entry): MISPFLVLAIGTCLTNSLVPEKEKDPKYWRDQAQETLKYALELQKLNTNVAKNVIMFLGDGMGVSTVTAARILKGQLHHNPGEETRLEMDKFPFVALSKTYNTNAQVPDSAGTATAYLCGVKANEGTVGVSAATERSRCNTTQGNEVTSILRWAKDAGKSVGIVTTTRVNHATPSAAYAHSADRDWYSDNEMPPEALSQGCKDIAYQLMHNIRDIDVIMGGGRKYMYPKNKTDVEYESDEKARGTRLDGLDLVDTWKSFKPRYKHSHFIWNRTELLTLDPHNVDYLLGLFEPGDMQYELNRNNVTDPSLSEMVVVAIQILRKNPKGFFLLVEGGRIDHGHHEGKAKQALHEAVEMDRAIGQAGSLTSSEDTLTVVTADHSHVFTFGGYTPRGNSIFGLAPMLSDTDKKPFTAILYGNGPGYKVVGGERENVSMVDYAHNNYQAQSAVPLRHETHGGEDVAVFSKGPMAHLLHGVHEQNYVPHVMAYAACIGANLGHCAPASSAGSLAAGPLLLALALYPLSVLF

[4] = target: T1, Intestinal-type alkaline phosphatase; experiment: human intestinal alkaline phosphatase activators, dose response, biochemical, luminescence, uHTS hits (AID 463120); format: functional
Bcl-2-like protein 10 = target: T3, Bcl-2-like protein 10 (Homo sapiens, UniProt Q9HD36); experiment: Bcl-B/TR3 peptide binding disruption – biochemical, fluorescence polarization, FITC-TR3 peptide, selectivity assay for Bfl-1 inhibitor project, primary screen (AID 748);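 note: fluorescence polarization from a fluorescein-labelled TR3 peptide binding purified Bcl-B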
T3 sequence (Q9HD36 whole entry): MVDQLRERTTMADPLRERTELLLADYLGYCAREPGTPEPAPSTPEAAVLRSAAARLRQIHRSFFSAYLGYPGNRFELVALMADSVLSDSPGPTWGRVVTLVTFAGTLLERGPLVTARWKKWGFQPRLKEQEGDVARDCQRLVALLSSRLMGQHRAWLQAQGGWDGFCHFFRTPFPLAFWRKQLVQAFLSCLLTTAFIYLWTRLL

[5] = target: T4, Lysosomal acid glucosylceramidase (Homo sapiens, UniProt P04062); experiment: Dose response cell-based high throughput screening assay to identify enhancers of beta-glucosidase activity. [Related pubchem assays: 784 ]; format: functional
T4 sequence (P04062 whole entry): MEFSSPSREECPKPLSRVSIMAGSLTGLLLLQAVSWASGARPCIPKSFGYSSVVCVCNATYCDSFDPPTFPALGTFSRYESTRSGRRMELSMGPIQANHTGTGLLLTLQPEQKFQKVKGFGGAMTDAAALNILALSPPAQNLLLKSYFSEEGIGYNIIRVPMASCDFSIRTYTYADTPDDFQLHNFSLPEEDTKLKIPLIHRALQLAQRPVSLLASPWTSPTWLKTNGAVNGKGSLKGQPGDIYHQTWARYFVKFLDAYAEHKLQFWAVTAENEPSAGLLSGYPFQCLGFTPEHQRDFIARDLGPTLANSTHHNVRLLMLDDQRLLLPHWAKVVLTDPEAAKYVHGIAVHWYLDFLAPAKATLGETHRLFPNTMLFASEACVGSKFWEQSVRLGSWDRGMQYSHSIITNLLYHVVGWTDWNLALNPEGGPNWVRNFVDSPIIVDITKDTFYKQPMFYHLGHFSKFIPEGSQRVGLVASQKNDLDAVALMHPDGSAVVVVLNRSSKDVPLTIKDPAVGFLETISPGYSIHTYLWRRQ

[6] = target: T5, Carboxy-terminal domain RNA polymerase II polypeptide A small phosphatase 1 (Homo sapiens, UniProt Q9GZU7); experiment: CTDSP1 inhibitors, concentration-response, biochemical, absorbance readout, ultra-high-throughput screen actives (AID 540297); format: functional
T5 sequence (Q9GZU7 whole entry): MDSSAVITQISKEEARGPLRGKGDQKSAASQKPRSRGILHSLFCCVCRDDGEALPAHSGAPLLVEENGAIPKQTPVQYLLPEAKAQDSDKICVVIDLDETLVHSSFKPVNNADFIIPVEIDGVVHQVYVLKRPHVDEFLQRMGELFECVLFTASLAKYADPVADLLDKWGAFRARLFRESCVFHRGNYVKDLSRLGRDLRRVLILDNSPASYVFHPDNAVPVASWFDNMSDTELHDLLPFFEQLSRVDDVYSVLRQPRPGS

[7] = target: DNA dC->dU-editing enzyme APOBEC-3G (Homo sapiens, UniProt Q9HC16); format: functional;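 note: Dose-response counterscreen measuring inhibition of APOBEC3G DNA deaminase activity, run while confirming APOBEC3A inhibitors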
Chain of DNA dC->dU-editing enzyme APOBEC-3G (Q9HC16 whole entry): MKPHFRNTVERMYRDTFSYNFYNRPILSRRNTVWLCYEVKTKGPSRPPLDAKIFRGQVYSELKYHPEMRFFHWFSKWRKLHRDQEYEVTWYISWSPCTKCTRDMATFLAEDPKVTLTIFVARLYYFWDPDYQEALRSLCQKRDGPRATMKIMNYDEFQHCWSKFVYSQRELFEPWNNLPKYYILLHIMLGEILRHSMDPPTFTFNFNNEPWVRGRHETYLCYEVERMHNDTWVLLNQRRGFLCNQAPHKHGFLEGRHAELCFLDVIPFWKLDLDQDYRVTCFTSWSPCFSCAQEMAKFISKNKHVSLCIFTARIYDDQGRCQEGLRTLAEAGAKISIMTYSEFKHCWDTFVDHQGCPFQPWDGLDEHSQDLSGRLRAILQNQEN

[8] = target: DNA dC->dU-editing enzyme APOBEC-3A (Homo sapiens, UniProt P31941); experiment: Dose Response confirmation of small molecule APOBEC3A DNA Deaminase Inhibitors via a fluorescence-based single-stranded DNA deaminase assay. [Related pubchem assays (depositor defined):AID493011, AID493024]; format: functional
Chain of DNA dC->dU-editing enzyme APOBEC-3A (P31941 whole entry): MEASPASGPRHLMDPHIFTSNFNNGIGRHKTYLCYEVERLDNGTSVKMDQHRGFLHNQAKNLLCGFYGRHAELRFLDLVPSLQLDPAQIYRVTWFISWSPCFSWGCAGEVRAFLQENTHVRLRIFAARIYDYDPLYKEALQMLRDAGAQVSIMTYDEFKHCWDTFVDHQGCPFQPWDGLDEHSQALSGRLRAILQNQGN

Coagulation factor XII = target: T6, Coagulation factor XII (Homo sapiens, UniProt P00748); format: functional;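 note: activated factor XIIa alpha cleaving a fluorogenic AMC peptide substrate; inhibitor potency from loss of enzyme activity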
T6 sequence (P00748 whole entry): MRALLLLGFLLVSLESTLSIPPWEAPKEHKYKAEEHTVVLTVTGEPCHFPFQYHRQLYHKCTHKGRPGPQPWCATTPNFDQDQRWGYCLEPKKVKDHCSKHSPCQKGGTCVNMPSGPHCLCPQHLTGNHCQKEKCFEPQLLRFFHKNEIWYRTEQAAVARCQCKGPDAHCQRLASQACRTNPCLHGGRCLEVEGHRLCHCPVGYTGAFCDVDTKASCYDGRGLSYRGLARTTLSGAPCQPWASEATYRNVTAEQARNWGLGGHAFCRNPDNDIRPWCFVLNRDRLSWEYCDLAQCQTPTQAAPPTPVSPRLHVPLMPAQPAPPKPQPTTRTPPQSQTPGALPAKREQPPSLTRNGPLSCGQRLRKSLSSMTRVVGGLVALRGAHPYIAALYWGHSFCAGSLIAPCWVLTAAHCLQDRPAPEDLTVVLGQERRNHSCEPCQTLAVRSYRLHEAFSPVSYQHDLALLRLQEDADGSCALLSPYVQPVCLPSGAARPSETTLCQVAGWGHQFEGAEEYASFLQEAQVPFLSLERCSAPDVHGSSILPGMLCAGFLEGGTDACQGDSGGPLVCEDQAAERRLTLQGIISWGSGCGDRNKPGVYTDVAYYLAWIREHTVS

[9] = target: T7, Rac GTPase-activating protein 1 (Homo sapiens, UniProt Q9H0H5); experiment: blockers of MgcRacGAP-driven Rac1 GTP hydrolysis – biochemical, ADP Hunter fluorescence, primary and confirmatory, confirmation (AID 624330); format: functional
T7 sequence (Q9H0H5 whole entry): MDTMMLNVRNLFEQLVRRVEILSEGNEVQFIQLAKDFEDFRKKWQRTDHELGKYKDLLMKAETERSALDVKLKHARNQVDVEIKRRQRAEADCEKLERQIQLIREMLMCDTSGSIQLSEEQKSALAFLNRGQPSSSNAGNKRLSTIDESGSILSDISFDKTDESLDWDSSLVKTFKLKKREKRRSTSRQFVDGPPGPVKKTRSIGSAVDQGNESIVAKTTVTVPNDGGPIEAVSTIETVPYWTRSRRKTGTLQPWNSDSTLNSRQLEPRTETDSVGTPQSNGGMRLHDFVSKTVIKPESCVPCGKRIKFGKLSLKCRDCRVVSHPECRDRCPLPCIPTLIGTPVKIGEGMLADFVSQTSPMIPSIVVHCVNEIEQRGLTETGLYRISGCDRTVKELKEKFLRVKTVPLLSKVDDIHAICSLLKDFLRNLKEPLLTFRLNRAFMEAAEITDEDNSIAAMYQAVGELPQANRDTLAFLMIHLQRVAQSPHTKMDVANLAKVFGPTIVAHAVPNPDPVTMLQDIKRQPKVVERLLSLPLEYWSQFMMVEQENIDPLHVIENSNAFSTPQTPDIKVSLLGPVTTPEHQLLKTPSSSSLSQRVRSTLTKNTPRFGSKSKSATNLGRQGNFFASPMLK

Cytochrome P450 3A4 = Cytochrome P450 3A4 (Homo sapiens, UniProt P08684); settings: Potency;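 note: confirmatory qHTS run detecting inhibitors and substrates of CYP3A4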
Chain of Cytochrome P450 3A4 (P08684 whole entry): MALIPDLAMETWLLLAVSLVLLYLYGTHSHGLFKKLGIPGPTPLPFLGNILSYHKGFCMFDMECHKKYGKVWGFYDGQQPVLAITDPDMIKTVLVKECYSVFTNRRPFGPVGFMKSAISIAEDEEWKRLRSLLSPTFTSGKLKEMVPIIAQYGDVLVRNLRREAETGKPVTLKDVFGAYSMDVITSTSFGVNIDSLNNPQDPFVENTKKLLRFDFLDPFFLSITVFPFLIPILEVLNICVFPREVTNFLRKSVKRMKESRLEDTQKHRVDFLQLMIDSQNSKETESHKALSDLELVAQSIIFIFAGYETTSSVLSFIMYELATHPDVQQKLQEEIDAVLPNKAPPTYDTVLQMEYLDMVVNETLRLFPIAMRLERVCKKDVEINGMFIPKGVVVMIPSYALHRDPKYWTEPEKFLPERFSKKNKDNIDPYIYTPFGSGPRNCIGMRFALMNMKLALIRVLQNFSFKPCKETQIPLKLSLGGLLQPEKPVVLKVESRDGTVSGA

[10] = HepG2 cell cytotoxicity, dose response, cytotoxicity control for non-replicating M. tuberculosis project (AID 489018); format: functional; settings: Mycobacterium tuberculosis
[11] = THP-1 cell cytotoxicity, dose response, cytotoxicity control for non-replicating M. tuberculosis project (AID 489025); format: functional
[12] = viability of uninfected HEp-2 cells – cell-based, HTS, cytotoxicity control for RSV inhibitor project, dose response (AID 2410); format: functional; settings: human respiratory syncytial virus
[13] = microbe, parasite or virus in culture; format: functional; settings: Mycobacterium tuberculosis
cells = format: functional
[14] = target: T8, Zinc finger protein mex-5 (Caenorhabditis elegans, UniProt Q9XUB2); experiment: potency of MEX-5 RNA-binding blockers – biochemical, C. elegans, fluorescence polarization, dose response (AID 1960)
T8 sequence (Q9XUB2 whole entry): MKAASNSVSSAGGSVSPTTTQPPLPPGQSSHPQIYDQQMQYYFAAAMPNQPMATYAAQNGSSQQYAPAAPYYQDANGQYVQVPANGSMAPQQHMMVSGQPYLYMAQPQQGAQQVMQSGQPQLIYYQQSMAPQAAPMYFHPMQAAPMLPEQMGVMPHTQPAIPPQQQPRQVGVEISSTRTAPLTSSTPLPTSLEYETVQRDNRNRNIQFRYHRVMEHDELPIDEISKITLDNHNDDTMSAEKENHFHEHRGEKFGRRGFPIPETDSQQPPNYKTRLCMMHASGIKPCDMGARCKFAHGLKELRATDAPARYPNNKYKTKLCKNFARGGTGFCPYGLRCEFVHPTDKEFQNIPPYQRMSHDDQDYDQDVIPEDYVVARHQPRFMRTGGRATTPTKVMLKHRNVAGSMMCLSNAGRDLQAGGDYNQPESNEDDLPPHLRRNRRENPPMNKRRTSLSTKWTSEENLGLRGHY

[15] = target: T9, RNA-binding protein pos-1 (Caenorhabditis elegans, UniProt G5EF15); experiment: disruptors of C. elegans POS-1 RNA interaction – biochemical, fluorescence polarization, dose response (AID 1964);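 note: purified POS-1 fused to maltose binding protein made in E. coli; potency of compounds blocking POS-1 binding to fluorescent RNA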
T9 sequence (G5EF15 whole entry): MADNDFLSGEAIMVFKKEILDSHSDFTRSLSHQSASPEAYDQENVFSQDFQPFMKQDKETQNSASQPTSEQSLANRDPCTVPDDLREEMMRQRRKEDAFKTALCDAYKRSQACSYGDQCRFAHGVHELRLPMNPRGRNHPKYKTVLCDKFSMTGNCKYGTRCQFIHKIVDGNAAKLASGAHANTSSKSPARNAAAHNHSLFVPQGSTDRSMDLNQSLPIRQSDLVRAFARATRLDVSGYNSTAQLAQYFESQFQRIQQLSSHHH

[16] = target: T10, Voltage-gated N-type calcium channel alpha-1B subunit/Amyloid beta A4 precursor protein-binding family A member 1 (Homo sapiens, UniProt Q00975+Q02410); format: protein assay
T10 sequence (Q00975 whole entry): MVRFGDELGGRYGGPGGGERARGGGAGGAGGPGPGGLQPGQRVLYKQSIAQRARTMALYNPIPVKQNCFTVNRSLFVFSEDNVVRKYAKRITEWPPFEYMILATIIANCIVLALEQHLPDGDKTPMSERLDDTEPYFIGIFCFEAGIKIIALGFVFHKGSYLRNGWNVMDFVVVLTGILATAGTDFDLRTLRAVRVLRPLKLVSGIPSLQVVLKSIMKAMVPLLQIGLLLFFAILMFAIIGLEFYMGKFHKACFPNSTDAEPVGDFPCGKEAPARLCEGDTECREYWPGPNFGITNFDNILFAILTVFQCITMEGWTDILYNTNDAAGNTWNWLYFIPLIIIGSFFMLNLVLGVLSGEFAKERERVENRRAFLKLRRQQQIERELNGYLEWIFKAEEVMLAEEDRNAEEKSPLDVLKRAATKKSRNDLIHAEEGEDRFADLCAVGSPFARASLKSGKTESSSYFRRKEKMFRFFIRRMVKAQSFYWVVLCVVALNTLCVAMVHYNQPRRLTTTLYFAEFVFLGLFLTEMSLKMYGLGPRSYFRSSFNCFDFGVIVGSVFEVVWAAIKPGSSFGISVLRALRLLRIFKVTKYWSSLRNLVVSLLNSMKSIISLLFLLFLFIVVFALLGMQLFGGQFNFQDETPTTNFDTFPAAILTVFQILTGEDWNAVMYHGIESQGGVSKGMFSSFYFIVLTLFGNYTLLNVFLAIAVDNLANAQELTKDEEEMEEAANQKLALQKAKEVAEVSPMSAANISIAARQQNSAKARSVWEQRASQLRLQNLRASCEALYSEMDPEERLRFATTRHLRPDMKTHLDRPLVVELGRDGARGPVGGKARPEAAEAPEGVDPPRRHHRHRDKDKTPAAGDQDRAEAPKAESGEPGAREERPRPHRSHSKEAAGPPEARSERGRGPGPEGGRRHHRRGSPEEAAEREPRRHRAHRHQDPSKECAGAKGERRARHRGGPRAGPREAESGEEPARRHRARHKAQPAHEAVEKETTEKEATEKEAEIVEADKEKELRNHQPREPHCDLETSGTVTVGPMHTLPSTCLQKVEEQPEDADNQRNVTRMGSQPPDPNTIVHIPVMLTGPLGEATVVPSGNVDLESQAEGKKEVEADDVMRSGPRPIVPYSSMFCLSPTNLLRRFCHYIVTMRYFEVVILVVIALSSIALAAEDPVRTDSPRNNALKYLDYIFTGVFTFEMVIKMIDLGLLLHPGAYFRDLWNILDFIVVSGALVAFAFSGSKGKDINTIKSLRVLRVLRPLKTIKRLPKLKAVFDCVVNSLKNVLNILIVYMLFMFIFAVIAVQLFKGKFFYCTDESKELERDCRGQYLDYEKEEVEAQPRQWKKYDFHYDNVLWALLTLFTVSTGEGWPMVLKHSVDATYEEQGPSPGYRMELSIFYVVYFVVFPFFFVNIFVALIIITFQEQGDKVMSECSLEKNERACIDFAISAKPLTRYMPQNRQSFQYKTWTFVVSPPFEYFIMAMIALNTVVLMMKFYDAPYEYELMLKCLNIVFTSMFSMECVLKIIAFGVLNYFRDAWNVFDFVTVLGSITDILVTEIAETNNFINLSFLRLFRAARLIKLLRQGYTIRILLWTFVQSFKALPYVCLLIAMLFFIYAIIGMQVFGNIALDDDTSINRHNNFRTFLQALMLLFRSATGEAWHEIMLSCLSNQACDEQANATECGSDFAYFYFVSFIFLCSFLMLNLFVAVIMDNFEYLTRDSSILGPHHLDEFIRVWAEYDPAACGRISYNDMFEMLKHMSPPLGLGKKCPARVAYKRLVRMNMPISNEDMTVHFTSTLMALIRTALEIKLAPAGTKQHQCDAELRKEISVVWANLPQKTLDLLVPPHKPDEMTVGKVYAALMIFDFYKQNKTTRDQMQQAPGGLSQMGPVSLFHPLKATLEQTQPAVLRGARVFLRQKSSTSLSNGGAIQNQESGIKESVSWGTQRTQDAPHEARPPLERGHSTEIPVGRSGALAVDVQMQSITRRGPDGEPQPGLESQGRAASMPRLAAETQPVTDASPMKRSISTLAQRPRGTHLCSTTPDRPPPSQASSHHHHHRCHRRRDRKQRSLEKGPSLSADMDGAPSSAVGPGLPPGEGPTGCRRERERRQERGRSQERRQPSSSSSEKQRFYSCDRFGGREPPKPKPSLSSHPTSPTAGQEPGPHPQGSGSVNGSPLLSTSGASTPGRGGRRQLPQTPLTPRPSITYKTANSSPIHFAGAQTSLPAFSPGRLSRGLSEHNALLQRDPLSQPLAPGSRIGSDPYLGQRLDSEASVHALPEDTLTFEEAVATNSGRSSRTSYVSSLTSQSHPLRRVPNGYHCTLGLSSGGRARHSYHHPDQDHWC
T10 sequence (Q02410 whole entry): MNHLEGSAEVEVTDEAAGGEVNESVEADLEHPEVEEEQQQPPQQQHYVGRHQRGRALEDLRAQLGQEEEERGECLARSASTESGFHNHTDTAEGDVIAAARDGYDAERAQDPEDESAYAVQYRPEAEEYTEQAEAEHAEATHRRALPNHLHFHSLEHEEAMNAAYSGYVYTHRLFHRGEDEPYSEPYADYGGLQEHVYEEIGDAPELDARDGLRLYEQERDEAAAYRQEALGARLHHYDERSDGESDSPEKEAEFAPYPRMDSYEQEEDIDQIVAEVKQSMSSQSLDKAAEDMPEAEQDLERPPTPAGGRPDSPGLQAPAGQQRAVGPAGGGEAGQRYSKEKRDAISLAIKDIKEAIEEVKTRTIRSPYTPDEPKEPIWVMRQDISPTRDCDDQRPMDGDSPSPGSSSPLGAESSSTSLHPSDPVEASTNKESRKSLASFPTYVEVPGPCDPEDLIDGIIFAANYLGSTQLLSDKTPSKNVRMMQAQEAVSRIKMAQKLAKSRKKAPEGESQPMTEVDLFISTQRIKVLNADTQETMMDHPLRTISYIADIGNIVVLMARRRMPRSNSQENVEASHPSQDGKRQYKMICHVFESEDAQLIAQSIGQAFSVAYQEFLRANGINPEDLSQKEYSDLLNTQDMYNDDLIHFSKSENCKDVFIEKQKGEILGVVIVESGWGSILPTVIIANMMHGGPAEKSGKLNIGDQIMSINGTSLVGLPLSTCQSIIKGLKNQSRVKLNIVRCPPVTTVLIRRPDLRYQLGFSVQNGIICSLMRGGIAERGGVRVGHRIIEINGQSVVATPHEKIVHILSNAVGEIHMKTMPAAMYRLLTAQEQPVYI

[17] = target: T10, Voltage-gated N-type calcium channel alpha-1B subunit/Amyloid beta A4 precursor protein-binding family A member 1; format: protein assay; remark: listed apart in the source

COc1ccccc1N(C)S(=O)(=O)c1ccc(Cl)c(C(=O)NNC(=O)c2ccccc2O)c1
EC50 [1]: > 100 µM (inactive)
EC50 [2]: 15.7 µM (active)
EC50 [3]: 26.5 µM (active)
EC50 [4]: 11.5 µM (active)

C=CCNS(=O)(=O)c1nc(C)c(Cl)c(C)c1C#N
IC50 (Bcl-2-like protein 10): > 100 µM (inactive)

CCOc1ccccc1-n1c(SCC(N)=O)nnc1-c1ccc(O)cc1
EC50 [5]: > 50 µM (not active)

CCOc1ccc(/N=C2/SCCCN2C)cc1
IC50 [6]: 17 µM (active)
IC50 [7]: 2.35 µM (active)
IC50 [8]: 2.19 µM (active)

CC1Cc2ccccc2N1S(=O)(=O)c1cccc2nsnc12 (centres undefined)
IC50 (Coagulation factor XII): > 50 µM (inactive)

CCOC(=O)C[n+]1c(C)n(C)c2cc(Cl)c(Cl)cc21
IC50 [7]: 2.2 µM (active)
IC50 [8]: 2.26 µM (active)

Oc1cccc(Nc2ccccc2)c1
IC50 [9]: 62.6 µM (active)
AC50 (Cytochrome P450 3A4): 15.8 µM (inconclusive)

C=CCNCC(=O)N1N=C(c2ccc3ccccc3c2)CC1c1ccc(OC)cc1 (centres undefined)
CC50 [10]: > 20 µM (active)
CC50 [11]: 23.5 µM (active)
CC50 [12]: 14.9 µM (active)
CC50 [13]: 25.5 µM (active)
IC50 (cells): 18.1 µM (active)

CC1(C)CC2C1CCC1(C)OC2(C)CCC1O (centres undefined) [3,7-EPOXYCARYOPHYLLAN-6-OL]
AC50 (Cytochrome P450 3A4): 25.1 µM (inconclusive)

N=c1c(C(=O)NCC2CCCO2)cc2c(=O)n3ccccc3nc2n1Cc1cccnc1 (centres undefined)
EC50 [14]: 12.2 µM (active)
EC50 [15]: 17.1 µM (active)
IC50 (Bcl-2-like protein 10): > 25 µM (inactive)

Cc1cc(NS(=O)(=O)c2ccc(NC(=O)CCN3C(=O)c4ccccc4C3=O)cc2)no1
EC50 [5]: > 50 µM (not active)

N#CCC(=O)N/N=C/c1cn(Cc2ccc(Cl)c(Cl)c2)c2ccccc12
IC50 [16]: > 50 µM (inactive)
IC50 [17]: > 56.8 µM (not active)

COc1ccc(S(=O)(=O)N(CC(=O)NCC2CCCO2)c2ccccc2)cc1OC (centres undefined)
EC50 [5]: > 50 µM (not active)

COC(=O)c1ccccc1NC(=O)c1cc[n+](C)cc1
IC50 [7]: 4.04 µM (active)
IC50 [8]: 3.62 µM (active)

O=C(NC1CCCCC1)NC1CCCCC1 [1,3-DICYCLOHEXYLUREA]
AC50 (Cytochrome P450 3A4): 3.16 µM (inconclusive)

O=C(N/N=C/c1c(F)cccc1Cl)c1cc(C2CC2)[nH]n1
EC50 [1]: > 100 µM (inactive)
EC50 [2]: 40.6 µM (active)
EC50 [3]: 41.3 µM (active)
EC50 [4]: 21.5 µM (active)
